Measurements as given in US20030105300A1, “Tumor targeted photodiagnostic-phototherapeutic agents” (MALLINCKRODT INC., priority 2001, published 2003).

Experiments:
Design in all cases: species or system male Lewis rats
[1] = test system: DSL 6/A (pancreatic) tumor; experiment: In vivo fluorescence imaging of tumor-bearing rats with indocyanine green (DSL 6/A); settings: DSL 6/A tumor, left flank; 0.5 ml of 0.42 mg/ml ICG in saline, tail vein; images at 2 and 30 minutes
Description: (§1) A non-invasive in vivo fluorescence imaging apparatus was employed to assess the efficacy of indocyanine green (ICG) in three different rat tumor cell lines of the inventive contrast agents developed for tumor detection in animal models. A LaserMax Inc. laser diode of nominal wavelength 780 nm and nominal power of 40 mW was used. The detector was a Princeton Instruments model RTE/CCD-1317-K/2 CCD camera with a Rodenstock 10 mm F2 lens (stock #542.032.002.20) attached. An 830 nm […] (CVI Laser Corp., part #F10-830-4-2) was mounted in front of the CCD input lens, such that only emitted fluorescent light from the contrast agent was imaged.
(§2) Three tumor cell lines, DSL 6/A (pancreatic), Dunning R3327-H (prostate), and CA20948 (pancreatic), which are rich in somatostatin (SST-2) receptors were induced into male Lewis rats by solid implant technique in the left flank area (Achilefu et al., Invest. Radiology, 2000, pp. 479-485). Palpable masses were detected nine days post implant.

[2] = test system: Dunning R3327-H (prostate) tumor; experiment: In vivo fluorescence imaging of tumor-bearing rats with indocyanine green (Dunning R3327-H); settings: left flank, 0.5 ml of 0.42 mg/ml ICG in saline, tail vein, images at 2 and 30 minutes
Description: as §1, §2

[3] = test system: CA20948 (pancreatic) tumor; experiment: In vivo fluorescence imaging of tumor-bearing rats with indocyanine green (CA20948)
Description: as §1, §2

CC1(C)C(/C=C/C=C/C=C/C=C2\N(CCCCS(=O)(=O)O)c3ccc4ccccc4c3C2(C)C)=[N+](CCCCS(=O)(=O)[O-])c2ccc3ccccc3c21 [ICG, indocyanine green]
perfusion of the agent into the tumor (fluorescence images) [1]: slow perfusion of the agent into the tumor over time | perfusion of the agent into the tumor (fluorescence images) [2]: slow perfusion of the agent into the tumor over time | non-specific localization into the tumor line ([3]; compared to the other two lines): no non-specific localization | perfusion of the agent into the tumor (fluorescence images) ([3]; left flank, 0.5 ml of 0.42 mg/ml ICG in saline, tail vein, images at 2 and 30 minutes): only a slight and transient perfusion that was cleared after only 30 minutes post injection
